Measurements published in ChEMBL document CHEMBL4417626, “Post-Translational Regulation of Catalytic Activities of Cytochrome P450 46A1 and Uses Thereof” (2017).
Activity calls are given as the source filed them. The rule behind the calls is not given here.

Tests used:
[1] = biological target: T1, Cholesterol 24-hydroxylase (Homo sapiens, UniProt Q9Y6A2); experiment: Stimulation of full-length recombinant human CYP46A1 assessed as cholesterol hydroxylation at 43 uM using cholesterol as substrate in presence of NADPH cytochrome P450 oxidoreductase by gas chromatography-mass spectrometry
Target sequence in this assay (Q9Y6A2 whole entry, looked up): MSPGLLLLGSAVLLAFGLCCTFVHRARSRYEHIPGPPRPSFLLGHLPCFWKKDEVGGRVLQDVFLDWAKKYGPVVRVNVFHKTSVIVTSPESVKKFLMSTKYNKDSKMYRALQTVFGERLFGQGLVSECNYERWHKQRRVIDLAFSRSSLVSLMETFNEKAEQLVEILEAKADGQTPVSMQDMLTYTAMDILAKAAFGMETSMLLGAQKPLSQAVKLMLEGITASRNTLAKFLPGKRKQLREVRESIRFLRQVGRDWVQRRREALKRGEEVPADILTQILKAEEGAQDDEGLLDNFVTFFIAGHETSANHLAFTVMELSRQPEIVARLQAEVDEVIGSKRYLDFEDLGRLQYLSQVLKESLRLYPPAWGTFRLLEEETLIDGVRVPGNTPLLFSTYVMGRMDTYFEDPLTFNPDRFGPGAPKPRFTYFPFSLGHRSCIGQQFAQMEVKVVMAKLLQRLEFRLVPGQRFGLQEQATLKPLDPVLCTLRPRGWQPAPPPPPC

[2] = biological target: T1, Cholesterol 24-hydroxylase; experiment: Binding affinity to full-length recombinant human CYP46A1 by spectral binding study
Target sequence in this assay (Q9Y6A2 whole entry, looked up): as above

[3] = biological target: T1, Cholesterol 24-hydroxylase; experiment: Inhibition of full-length recombinant human CYP46A1 assessed as cholesterol hydroxylation using cholesterol as substrate in presence of NADPH cytochrome P450 oxidoreductase by gas chromatography-mass spectrometry
Target sequence in this assay (Q9Y6A2 whole entry): as the sequence (Q9Y6A2 whole entry, looked up) above

[4] = biological target: T1, Cholesterol 24-hydroxylase; experiment: Binding affinity to active site of full-length recombinant human CYP46A1 assessed as induction of type-II spectral response with minimum at 413 nm and maximum at 434 nm by spectral binding study
Target sequence in this assay (Q9Y6A2 whole entry, looked up): as above

[5] = biological target: T2, Cholesterol side-chain cleavage enzyme, mitochondrial (Bos taurus, UniProt P00189); experiment: Binding affinity to active site of bovine CYP11A1 assessed as induction of type-II spectral response by spectral binding study; details: cattle
T2 sequence (P00189 whole entry): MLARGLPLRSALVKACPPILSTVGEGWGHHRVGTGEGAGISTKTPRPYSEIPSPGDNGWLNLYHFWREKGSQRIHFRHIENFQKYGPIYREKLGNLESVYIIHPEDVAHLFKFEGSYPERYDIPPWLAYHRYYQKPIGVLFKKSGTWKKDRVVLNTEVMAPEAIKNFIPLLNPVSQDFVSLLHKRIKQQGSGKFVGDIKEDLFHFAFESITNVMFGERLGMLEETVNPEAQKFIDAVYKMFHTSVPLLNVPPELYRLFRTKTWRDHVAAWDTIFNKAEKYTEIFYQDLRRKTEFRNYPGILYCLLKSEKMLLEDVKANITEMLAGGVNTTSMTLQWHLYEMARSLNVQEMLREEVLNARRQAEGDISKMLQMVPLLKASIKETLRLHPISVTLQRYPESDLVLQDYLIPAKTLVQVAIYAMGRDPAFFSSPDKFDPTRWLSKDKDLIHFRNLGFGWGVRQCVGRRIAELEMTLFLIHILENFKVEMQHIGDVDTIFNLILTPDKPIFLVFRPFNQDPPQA

[6] = biological target: T3, Sterol 26-hydroxylase, mitochondrial (Homo sapiens) (UniProt Q02318); experiment: Binding affinity to full-length recombinant human CYP27A1 assessed as induction of spectral shift up to 100 uM by spectral binding study
T3 sequence (whole entry): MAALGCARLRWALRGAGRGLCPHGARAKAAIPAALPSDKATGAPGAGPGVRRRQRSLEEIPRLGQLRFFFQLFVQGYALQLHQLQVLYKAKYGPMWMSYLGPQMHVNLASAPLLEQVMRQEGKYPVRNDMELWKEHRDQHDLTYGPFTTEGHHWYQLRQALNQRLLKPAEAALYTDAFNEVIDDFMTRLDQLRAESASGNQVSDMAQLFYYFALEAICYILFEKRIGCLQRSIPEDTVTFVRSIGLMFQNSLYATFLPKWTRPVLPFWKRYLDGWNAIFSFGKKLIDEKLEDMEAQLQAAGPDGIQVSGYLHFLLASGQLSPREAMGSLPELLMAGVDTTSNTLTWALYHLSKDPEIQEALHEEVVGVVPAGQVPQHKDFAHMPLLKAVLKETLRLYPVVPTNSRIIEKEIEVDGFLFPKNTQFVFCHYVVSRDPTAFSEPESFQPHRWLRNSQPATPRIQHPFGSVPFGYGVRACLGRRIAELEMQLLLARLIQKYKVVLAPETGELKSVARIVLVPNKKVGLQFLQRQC

Mus musculus [7] = experiment: In-vivo inhibition of CYP46A1 in C57/B6J mouse plasma assessed as reduction in 24S-hydroxy cholesterol at 60 mg/kg, ip dosed qd for 5 days by isotope dilution mass-spectrometry relative to control; format: functional; details: 120 h
Mus musculus [8] = species on record: Mus musculus; details: C57/B6J, 60 mg/kg
Mus musculus [9] = species on record: Mus musculus; details: C57/B6J, 75 mg/kg
Mus musculus [10] = species on record: Mus musculus; details: C57/B6J, 60 mg/kg; remark: listed apart in the source
Description: In-vivo inhibition of CYP46A1 in C57/B6J mouse brain assessed as reduction in lathosterol level at 60 mg/kg, ip dosed qd for 5 days by isotope dilution mass-spectrometry relative to control

SMILES	Activity [1] [%]	other results
CCOc1ccc(N)cc1	50	
CC(=O)[C@H]1CC[C@H]2[C@@H]3CC=C4C[C@@H](O)CC[C@]4(C)[C@H]3CC[C@]12C		Activity [2]: inactive
CC(=O)Nc1ccc(C)cc1	112	
CC(=O)Nc1cccc(O)c1	87	
CC(=O)Nc1ccccc1O	103	
CC(=O)[C@H]1CC[C@H]2[C@@H]3CC=C4C[C@@H](OS(=O)(=O)O)CC[C@]4(C)[C@H]3CC[C@]12C		Ki [3]: 2500 nM
CC(=O)Nc1ccc(CO)cc1	112	
CCCCOc1ccc(NC(C)=O)cc1	107	
CCOc1ccc(NC(=O)CC)cc1	101	
C[C@@H](c1ncncc1F)[C@](O)(Cn1cncn1)c1ccc(F)cc1F [VORICONAZOLE]		Activity [4]: Active; Activity [5]: Active; Activity [6]: inactive; inhibition in vivo at 60 mg/kg (Mus musculus [7]): 30%; inhibition (Mus musculus [8]): Active; inhibition (Mus musculus [9]): Active; inhibition (Mus musculus [10]): Active
COc1ccc(NC(C)=O)cc1	100	
CC(=O)Nc1ccc(O)cc1	132	
